For 15 molecules, TGI results are on record in PubChem BioAssay (NCI).

Some test systems named below: U251 CNS; SW-620 colon; LOX IMVI melanoma; HS 578T breast; NCI/ADR-RES ovarian; HT29 colon; HL-60(TB) leukemia; MCF7 breast; HCT-15 colon; K-562 leukemia.
What all share (experiment): DTP human tumour cell line panel, 48 h

Molecules are shown by their SMILES. “And” between values parts separate entries of the source, which are not always exact repeats. Equal values may be shown once.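 A five-concentration, 48-hour dose response in 96-well plates underlies each endpoint, interpolated linearly between surrounding concentrations. TGI: total growth inhibition.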

For the molecule `CC(=O)N=C1N(/C=C2\C(=O)Oc3ccccc3C2=O)C(=O)/C(=C/c2ccc(OC(C)=O)cc2)N1C`, the TGI in the test with U251 CNS, with SW-620 colon, in the test on LOX IMVI melanoma, with HS 578T breast, in the test on NCI/ADR-RES ovarian and in the test with HT29 colon was over 100 µM in each case. The TGI with HL-60(TB) leukemia, with MCF7 breast, in the test with HCT-15 colon and with K-562 leukemia was over 100 µM throughout.

With `OC(c1cc2ccccc2o1)c1cc2ccccc2s1` (stereo not given), the TGI in the test with U251 CNS, with SW-620 colon, with LOX IMVI melanoma, with HS 578T breast, in the test with NCI/ADR-RES ovarian and in the test with HT29 colon was over 10 µM throughout. Also, the TGI in the test with HL-60(TB) leukemia, in the test on MCF7 breast, with HCT-15 colon and in the test with K-562 leukemia was over 10 µM in each case.

In the case of `COC(=O)CCC(=O)NC1=C(NCc2ccccc2)C(=O)c2ccccc2C1=O`, the TGI (in general, the concentration at which net growth stops) in the test with U251 CNS is 94.8 µM; with SW-620 colon, 59.2 µM; in the test with LOX IMVI melanoma, 77.2 µM; with HS 578T breast, over 100 µM; in the test on NCI/ADR-RES ovarian it was over 100 µM; in the test on HT29 colon, over 100 µM. The TGI is over 100 µM with HL-60(TB) leukemia, 58.2 µM in the test on MCF7 breast, 51.5 µM in the test with HCT-15 colon and over 100 µM in the test with K-562 leukemia.

For the molecule `COC(=O)NCCc1[nH]nc2c1C(=O)C=C(N1CCOCC1)C2=O`, the TGI in the test with U251 CNS, in the test with SW-620 colon, with LOX IMVI melanoma, in the test with HS 578T breast, with NCI/ADR-RES ovarian and in the test with HT29 colon was over 100 µM each time. Further, the TGI with HL-60(TB) leukemia, with MCF7 breast, with HCT-15 colon and with K-562 leukemia was over 100 µM throughout.

With `N#CCc1n[nH]c(Cc2ccccc2)n1`, the TGI with U251 CNS, with SW-620 colon, in the test with LOX IMVI melanoma, with HS 578T breast, with NCI/ADR-RES ovarian and with HT29 colon was over 100 µM throughout. The TGI in the test with HL-60(TB) leukemia, in the test with MCF7 breast, with HCT-15 colon and with K-562 leukemia was over 100 µM in each case.

Turning to `Oc1ccc(-c2nc(-c3cccnc3)c(-c3ccc(Cl)cc3)[nH]2)cc1O`, the TGI stood at 26.4 µM with U251 CNS; 27.2 µM with SW-620 colon; 30.1 µM in the test on LOX IMVI melanoma; 36.4 µM with HS 578T breast; 32.5 µM in the test with NCI/ADR-RES ovarian; 27.7 µM in the test with HT29 colon. The TGI was over 100 µM with HL-60(TB) leukemia, 24.2 µM in the test on MCF7 breast, 22.2 µM with HCT-15 colon and over 100 µM with K-562 leukemia.

Regarding `Cc1nc(C)c(C(=O)NNC(N)=S)cc1C(=O)NNC(N)=S`, the TGI in the test with U251 CNS, with SW-620 colon, with LOX IMVI melanoma, in the test on HS 578T breast, in the test on NCI/ADR-RES ovarian and in the test with HT29 colon was over 100 µM throughout. In addition, the TGI in the test with HL-60(TB) leukemia, in the test with MCF7 breast, in the test on HCT-15 colon and in the test on K-562 leukemia was over 100 µM throughout.

For `C[C@]12CC[C@H]3[C@@H](CC=C4C[C@@H](N5CCCC5)CC[C@@]43C)[C@@H]1C[C@H](N1CCOCC1)[C@@H]2O`, the TGI in the test with U251 CNS was over 100 µM; in the test on SW-620 colon, over 100 µM; in the test with LOX IMVI melanoma, over 10 µM; in the test on HS 578T breast, over 100 µM; in the test with NCI/ADR-RES ovarian, over 100 µM; in the test with HT29 colon, over 100 µM. For the same molecule, the TGI was over 100 µM in the test on HL-60(TB) leukemia, over 10 µM in the test with MCF7 breast, over 100 µM in the test with HCT-15 colon and 74.3 µM in the test on K-562 leukemia.

With `COc1ccc2c(CCN)c(C(=O)O)[nH]c2c1`, the TGI with U251 CNS, in the test with SW-620 colon, with LOX IMVI melanoma, in the test with HS 578T breast, with NCI/ADR-RES ovarian and with HT29 colon was over 100 µM each time. Besides, the TGI in the test with HL-60(TB) leukemia, in the test with MCF7 breast, with HCT-15 colon and with K-562 leukemia was over 100 µM in each case.

Take `CCC12CCCN(Cc3ccccc3)C1c1c([nH]c3ccccc13)C(C(=O)OC)C2` (stereo not given): the concentration for total growth inhibition (TGI) in the test with U251 CNS, in the test on SW-620 colon, with LOX IMVI melanoma, with HS 578T breast, in the test on NCI/ADR-RES ovarian and in the test with HT29 colon was over 10 µM throughout. In addition, the TGI in the test with HL-60(TB) leukemia, in the test on MCF7 breast, with HCT-15 colon and with K-562 leukemia was over 10 µM in each case.

As to `CC(=O)OC(/C=C/c1ccccc1)P1(=O)N(CC(C)(C)C)[C@@H]2CCCC[C@H]2N1CC(C)(C)C` (stereo not given in full), the TGI in the test on U251 CNS was 22.6 µM and 19.7 µM; in the test with SW-620 colon, 31.3 µM and 20.7 µM; in the test with LOX IMVI melanoma, 24 µM and 24.5 µM; in the test with HS 578T breast it was 24.5 µM and 27.1 µM; in the test with NCI/ADR-RES ovarian, 20.6 µM and 18.3 µM; with HT29 colon, 17.6 µM and 15.6 µM. Besides, the TGI in the test on HL-60(TB) leukemia is 21.6 µM and 18.7 µM; in the test on MCF7 breast, 16 µM and 17.5 µM; in the test with HCT-15 colon it was 20.9 µM and 17.6 µM; with K-562 leukemia, 21.7 µM and 20.6 µM.

Turning to `O=C(c1ccccc1)N1CCN(C(=S)N(C(=O)c2ccccc2)c2ccccc2)C1=S`, the TGI in the test on U251 CNS is 22.6 µM; in the test with SW-620 colon, over 43.5 µM; in the test on LOX IMVI melanoma, 3.67 µM; in the test with HS 578T breast it was over 27.1 µM; in the test on NCI/ADR-RES ovarian, over 27.7 µM; in the test with HT29 colon, 31.2 µM. Besides, the TGI was 3.81 µM with HL-60(TB) leukemia, 10 µM in the test with MCF7 breast, 7.76 µM with HCT-15 colon and over 100 µM with K-562 leukemia.

As for `COC(=O)C(Cc1c(C2Nc3ccccc3C2CC(NC(=O)CNC(C)=O)C(=O)OC)[nH]c2ccccc12)NC(=O)CNC(C)=O` (stereo not given), the TGI in the test with U251 CNS, in the test with SW-620 colon, with LOX IMVI melanoma, in the test on HS 578T breast, in the test with NCI/ADR-RES ovarian and with HT29 colon was over 100 µM each time. The TGI in the test with HL-60(TB) leukemia, in the test with MCF7 breast, in the test with HCT-15 colon and in the test on K-562 leukemia was over 100 µM each time.

`Nn1c(COc2cccc(OCc3n[nH]c(=S)n3N)c2)n[nH]c1=S`: the TGI with U251 CNS, in the test with SW-620 colon, in the test on LOX IMVI melanoma, in the test with HS 578T breast, in the test with NCI/ADR-RES ovarian and in the test on HT29 colon was over 100 µM throughout. Also, the concentration for total growth inhibition (TGI) in the test on HL-60(TB) leukemia, in the test on MCF7 breast, with HCT-15 colon and with K-562 leukemia was over 100 µM each time.

In the case of `COC(=O)/C(=C\Nc1cccc(C)n1)S(=O)(=O)c1ccc(C)cc1`, the TGI in the test with U251 CNS, in the test with SW-620 colon, with LOX IMVI melanoma, in the test on HS 578T breast, with NCI/ADR-RES ovarian and in the test with HT29 colon was over 100 µM in each case. Also, the TGI with HL-60(TB) leukemia was 53.3 µM; in the test on MCF7 breast it was over 100 µM; with HCT-15 colon it was over 100 µM; in the test on K-562 leukemia it was 75.5 µM.
